From US9499550B2 (BRISTOL-MYERS SQUIBB COMPANY, priority 2012, dated 2016)
Where two headings read alike, the source gives them in different places.

Tests used:
[1] = test system: HCV genotype 1a (H77 strain) replicon in HUH-7 cells; assay: HCV replicon luciferase reporter assay, genotype 1a; format: cell-based; conditions: Hepatitis C virus, Huh-7, 72 h, 3 days incubation
Method in brief: (§1)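 Replicon inhibition for both genotypes was measured as Renilla luciferase signal (EnduRen, 7.5 μM final, 2 h) after 3-day, 37° C exposure of replicon-bearing HUH-7 cells in 4% FCS DMEM, 0.5% DMSO. The 1b construct carries S1179I; the 1a H77 construct carries P1496L and S2204I. Twenty-point, 3-fold dilutions were fitted four-parametrically for EC50, and CC50 was taken from multiplexed Cell Titer-Blue.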

[2] = test system: HCV genotype 1b (Con1) replicon in HUH-7 cells; assay: HCV replicon luciferase reporter assay, genotype 1b; format: cell-based; conditions: Hepatitis C virus, Huh-7, 72 h, 3 days incubation
Method in brief: as §1

[3] = HCV genotype 1a replicon luciferase assay, range class, read-out: LE_1a (EC50, range)
[4] = HCV genotype 1b replicon luciferase assay, range class, read-out: LE_1b (EC50, range)
[5] = GETYPE1A, HCV genotype 1a replicon luciferase, read-out: LE_1a (EC50, range)
[6] = GETYPE1B, HCV genotype 1b replicon luciferase, read-out: LE_1b (EC50, range)
[7] = HCV genotype 1a replicon luciferase, read-out: LE_1a (EC50, range)
[8] = HCV genotype 1b replicon luciferase, read-out: LE_1b (EC50, range)

Row | SMILES | EC50 [1, 3] [nM] | EC50 [2, 4] [nM] | EC50 [1, 7] [nM] | EC50 [2, 8] [nM] | further results
1 | COCCOc1cnc(O[C@@H]2C[C@H]3C(=O)N[C@]4(C(=O)NS(=O)(=O)C5CC5)C[C@H]4/C=C\CC[C@H](C)C[C@@H](C)[C@H](NC(=O)OC(C)(C)C(F)(F)F)C(=O)N3C2)c2ccc(OC)cc12 [Compound 1146, 1,1,1-trifluoro-2-methylpropan-2-yl((2R,6S,7R,9S,13aS,14aR,16aS,Z)-14a-((cyclopropylsulfonyl)carbamoyl)-2-((6-methoxy-4-(2-methoxyethoxyl)isoquinolin-1-yl)oxy)-7,9-dimethyl-5,16-dioxo-1,2,3,5,6,7,8,9,10,11,13a,14,14a,15,16,16a-hexadecahydrocyclopropa[e]pyrrolo[1,2-a][1,4]diazacyclopentadecin-6-yl)carbamate] | < 5.46 | < 5.46 | – | – | –
2 | C[C@@H]1CC/C=C\[C@@H]2C[C@@]2(C(=O)NS(=O)(=O)C2CC2)NC(=O)[C@@H]2C[C@@H](Oc3nccc4ccccc34)CN2C(=O)[C@@H](NC(=O)OC(C)(C)C(F)(F)F)[C@H](C)C1 [Compound 4040] | – | – | – | – | EC50 [1, 5]: < 5.46 nM; EC50 [2, 6]: < 5.46 nM
3 | COc1ccc2c(O[C@@H]3C[C@H]4C(=O)N[C@]5(C(=O)NS(=O)(=O)C6(C)CC6)C[C@H]5/C=C\CC[C@H](C)C[C@@H](C)[C@H](NC(=O)OC(C)(C)C(F)(F)F)C(=O)N4C3)nc(N3CCOCC3)cc2c1 [Compound 3094, 1,1,1-trifluoro-2-methylpropan-2-yl((2R,6S,7R,9S,13aS,14aR,16aS,Z)-2-((6-methoxy-3-morpholinoisoquinolin-1-yl)oxy)-7,9-dimethyl-14a-(((1-methylcyclopropyl)sulfonyl)carbamoyl)-5,16-dioxo-1,2,3,5,6,7,8,9,10,11,13a,14,14a,15,16,16a-hexadecahydrocyclopropa[e]pyrrolo[1,2-a][1,4]diazacyclopentadecin-6-yl)carbamate] | 4.82 to 103 | < 5.46 | – | – | –
4 | COc1cc2ccccc2c(O[C@@H]2C[C@H]3C(=O)N[C@]4(C(=O)NS(=O)(=O)C5(C)CC5)C[C@H]4/C=C\CC[C@@H](C)C[C@@H](C)[C@H](NC(=O)OC(C)(C)C(F)(F)F)C(=O)N3C2)n1 [Compound 6015, 1,1,1-trifluoro-2-methylpropan-2-yl((2R,6S,7R,9R,13aS,14aR,16aS,Z)-2-((3-methoxyisoquinolin-1-yl)oxy)-7,9-dimethyl-14a-(((1-methylcyclopropyl)sulfonyl)carbamoyl)-5,16-dioxo-1,2,3,5,6,7,8,9,10,11,13a,14,14a,15,16,16a-hexadecahydrocyclopropa[e]pyrrolo[1,2-a][1,4]diazacyclopentadecin-6-yl)carbamate] | – | – | < 5.46 | < 5.46 | EC50 ([1]; HCV genotype 1a replicon luciferase, read-out: LE_1a (EC50)): 1.19 nM; EC50 ([2]; HCV genotype 1b replicon luciferase, read-out: LE_1b (EC50)): 0.24 nM
5 | COc1ccc2c(O[C@@H]3C[C@H]4C(=O)N[C@]5(C(=O)NS(=O)(=O)C6CC6)C[C@H]5/C=C\CC[C@H](C)C[C@@H](C)[C@H](NC(=O)OC(C)(C)C(F)(F)F)C(=O)N4C3)nc(-c3ccc(OC(C)C)c(F)c3)cc2c1 [Compound 3063, 1,1,1-trifluoro-2-methylpropan-2-yl((2R,6S,7R,9S,13aS,14aR,16aS,Z)-14a-((cyclopropylsulfonyl)carbamoyl)-2-((3-(3-fluoro-4-isopropoxyphenyl)-6-methoxyisoquinolin-1-yl)oxy)-7,9-dimethyl-5,16-dioxo-1,2,3,5,6,7,8,9,10,11,13a,14,14a,15,16,16a-hexadecahydrocyclopropa[e]pyrrolo[1,2-a][1,4]diazacyclopentadecin-6-yl)carbamate] | 4.82 to 103 | < 5.46 | – | – | –
6 | COc1cc(F)cc2c(O[C@@H]3C[C@H]4C(=O)N[C@]5(C(=O)NS(=O)(=O)C6(CF)CC6)C[C@H]5/C=C\CC[C@H](C)C[C@@H](C)[C@H](NC(=O)OC(C)(C)C(C)(F)F)C(=O)N4C3)nccc12 [Compound 3179, 3,3-difluoro-2-methylbutan-2-yl((2R,6S,7R,9S,13aS,14aR,16aS,Z)-2-((7-fluoro-5-methoxyisoquinolin-1-yl)oxy)-14a-(((1-(fluoromethyl)cyclopropyl)sulfonyl)carbamoyl)-7,9-dimethyl-5,16-dioxo-1,2,3,5,6,7,8,9,10,11,13a,14,14a,15,16,16a-hexadecahydrocyclopropa[e]pyrrolo[1,2-a][1,4]diazacyclopentadecin-6-yl)carbamate] | 4.82 to 103 | 4.82 to 103 | – | – | –
7 | CC[C@@H]1C[C@H](C)CC/C=C\[C@@H]2C[C@@]2(C(=O)NS(=O)(=O)C2(C)CC2)NC(=O)[C@@H]2C[C@@H](Oc3nc4c(c5cc(OC)ccc35)CCCO4)CN2C(=O)[C@H]1NC(=O)OC(C)(C)C(F)(F)F [Compound 6095, 1,1,1-trifluoro-2-methylpropan-2-yl((2R,6S,7R,9R,13aS,14aR,16aS,Z)-7-ethyl-2-((9-methoxy-2,3-dihydro-1H-pyrano[2,3-c]isoquinolin-6-yl)oxy)-9-methyl-14a-(((1-methylcyclopropyl)sulfonyl)carbamoyl)-5,16-dioxo-1,2,3,5,6,7,8,9,10,11,13a,14,14a,15,16,16a-hexadecahydrocyclopropa[e]pyrrolo[1,2-a][1,4]diazacyclopentadecin-6-yl)carbamate] | – | – | 0.51 to 1 | 0.1 to 0.5 | –
8 | CC[C@@H]1C[C@@H](C)CC/C=C\[C@@H]2C[C@@]2(C(=O)NS(=O)(=O)C2(CF)CC2)NC(=O)[C@@H]2C[C@@H](Oc3nc(OC)cc4cc(OC)ccc34)CN2C(=O)[C@H]1NC(=O)OC(C)(C)C(F)(F)F [Compound 1194] | – | – | – | – | EC50 [1, 5]: 5.01 to 35 nM; EC50 [2, 6]: 1.01 to 5 nM
9 | COc1ccc2c(O[C@@H]3C[C@H]4C(=O)N[C@]5(C(=O)NS(=O)(=O)C6(C)CC6)C[C@H]5/C=C\CC[C@@H](C)C[C@@H](C)[C@H](NC(=O)OC(C)(C)C(F)(F)F)C(=O)N4C3)ncc(OC)c2c1 [Compound 4081] | – | – | – | – | EC50 [1, 5]: < 5.46 nM; EC50 [2, 6]: < 5.46 nM
10 | CCOc1nnc(O[C@@H]2C[C@H]3C(=O)N[C@]4(C(=O)NS(=O)(=O)C5(C)CC5)C[C@H]4/C=C\CC[C@@H](C)C[C@@H](CC)[C@H](NC(=O)OC(C)(C)C)C(=O)N3C2)c2ccccc12 [Compound 5047, tert-butyl ((2R,6S,7R,9R,13aS,14aR,16aS,Z)-2-((4-ethoxyphthalazin-1-yl)oxy)-7-ethyl-9-methyl-14a-(((1-methylcyclopropyl)sulfonyl)carbamoyl)-5,16-dioxo-1,2,3,5,6,7,8,9,10,11,13a,14,14a,15,16,16a-hexadecahydrocyclopropa[e]pyrrolo[1,2-a][1,4]diazacyclopentadecin-6-yl)carbamate] | – | – | < 5.46 | < 5.46 | –
11 | CC[C@@H]1C[C@H](C)CC/C=C\[C@@H]2C[C@@]2(C(=O)NS(=O)(=O)C2(C)CC2)NC(=O)[C@@H]2C[C@@H](Oc3nc4c(c5ccccc35)CCCO4)CN2C(=O)[C@H]1NC(=O)OC(C)(C)C [Compound 6064, tert-butyl ((2R,6S,7R,9R,13aS,14aR,16aS,Z)-2-((2,3-dihydro-1H-pyrano[2,3-c]isoquinolin-6-yl)oxy)-7-ethyl-9-methyl-14a-(((1-methylcyclopropyl)sulfonyl)carbamoyl)-5,16-dioxo-1,2,3,5,6,7,8,9,10,11,13a,14,14a,15,16,16a-hexadecahydrocyclopropa[e]pyrrolo[1,2-a][1,4]diazacyclopentadecin-6-yl)carbamate] | – | – | 0.51 to 1 | 0.1 to 0.5 | –
